This note sets out measurements from patent US9623017B2 (priority 2014, dated 2017).

Series [1] in a line: Skin flux evaluation, Franz Cell Diffusion method. The series is classed as in vitro ADME, human. As to conditions: film without lidocaine (n=7) vs patch with lidocaine, 32° C., 72-hour period. Here is the method: The diffusion of lidocaine API and naltrexone from the 4:3 naltrexone: 5-methyl-2-furaldehyde cocrystal in the transdermal patch to the skin was studied using a Franz Cell Diffusion (FCD) method. In the method, transdermal patches were placed on top of heat-separated human cadaver skin. The receptor solution (0.01M phosphate buffer, pH 5.76) was analyzed for lidocaine and naltrexone content over time by HPLC using the methods discussed above. In one set of experiments the method used four transdermal patches (n=4) and was carried out at 32° C. […] In another set of experiments a similar film was prepared as above without lidocaine (Dow Medical Fluid 100-5%/Dow 7-4201-88%/NTX-Co-7%). NTX-Co transdermal flux (n=7) was measured through heat-separated human cadaver skin using Franz Cell Diffusion cells at 32° C.

Series [2] in a line: Dynamic vapor sorption (DVS) analysis, Hiden IGAsorp. The class given is physicochemical. Here is the method: Approximately 10 mg of sample was placed into a mesh vapor sorption balance pan and loaded into a Hiden IGAsorp by Hiden. The sample was subjected to a ramping profile from 40-90% relative humidity (RH) at 10% increments, maintaining the sample at each step until a stable weight had been achieved (99.5% step completion). After completion of the sorption cycle, the sample was dried using the same procedure to 0% RH the sample was then subsequently taken back to 40% RH using the same procedure.
A DVS analysis of the 4:3 naltrexone: 5-methyl-2-furaldehyde cocrystal was performed using Hiden IGAsorp method.

Series [3] can be described thus: Solubility of the cocrystal in heptane. The class given is physicochemical. From the text:
A drug-in-adhesive transdermal patch of the invention may be manufactured using methods known in the art. The 4:3 naltrexone: 5-methyl-2-furaldehyde cocrystal particles may be incorporated into the drug-in-adhesive layer also using known methods such as melt blending. The 4:3 naltrexone: 5-methyl-2-furaldehyde cocrystal particles may be dispersed in a liquid in which the cocrystal is not soluble or only sparingly soluble (a “non-solvent”) and then added to a solution of the other drug-in-adhesive layer components in that same liquid. Alternatively, the 4:3 naltrexone: 5-methyl-2-furaldehyde cocrystal particles may be dispersed into the solution of the drug-in-adhesive components itself. Use of a non-solvent ensures that the cocrystal retains its crystalline form while forming the drug-in-adhesive layer. For the 4:3 naltrexone: 5-methyl-2-furaldehyde cocrystal, such a liquid will generally be a non-polar organic solvent. An example of such a solvent is heptane in which the 4:3 naltrexone: 5-methyl-2-furaldehyde cocrystal has a solubility of only 0.1 mg/mL at 5° C. and of 0.2 mg/mL at 50° C. Alternatively, the 4:3 naltrexone: 5-methyl-2-furaldehyde cocrystal particles may be incorporated into the drug-in-adhesive layer also using known methods such as melt blending.

With “4:3 naltrexone: 5-methyl-2-furaldehyde cocrystal”, in series [1], the transdermal flux entry is listed as “lower in the absence of lidocaine”. In addition, the “hygroscopicity (DVS)” value in series [2] (DVS kinetic analysis) is reported as “not hygroscopic”. Moreover, the “XRPD pattern of material reclaimed after DVS experiment” value in series [2] (after DVS cycle, compared with FIG. 1) is on record as “same XRPD pattern as in FIG. 1”. Also, the “mass change (DVS)” value in series [2] (ramping 40-90% RH, drying to 0% RH, back to 40% RH) was below 3%. The figures for the solubility in heptane in series [3] (5° C.) and in series [3] (50° C.) were 100 µg/mL and 200 µg/mL, respectively.
